Laboratory results taken from patent US8669292B2, “Therapeutic formulation” (Orion Therapeutics, LLC, priority 2005, dated 2014).
Values after ≈ are worked out from the molar mass of the structure shown. Like-named read-outs stand apart in the source and are kept apart here.

Tests used:
[1] = HORAC (Brunswick Test # A104); assay type: biochemical
Experimental: Peroxyl radical scores are measured in the ORAC test (Oxygen Radical Absorption Capacity). Hydroxyl Radicals are tested in the HORAC test (Hydroxyl Radical Absorption Capacity). Peroxynitrite Radicals are tested in the NORAC test (Peroxynitrite Radical Absorption Capacity). Superoxide Radicals are measured in the SOD test (Superoxide Radical Absorption Capacity). […] The result is expressed as micromoles of caffeic acid equivalent per liter (CAE/L) for liquid formulations and caffeic acid equivalent per gram (CAE/g) for dry powders.

MCF-7 Breast Cancer = assay: IC50 assay (concentration-cell number study); assay type: cell-based
Experimental: (§2) Concentration-cell number studies (IC50 assay) were carried out utilizing 12 separate compositions (numbered 1-12 below) against 13 different cancer cell lines (see Table 6). These cells are grown in 5 ml culture medium (RPMI-1640+15% Bovine Calf serum containing 1% penicillin-streptomycin, and 1% Glutamine) at 37° C. and 5% CO2 at a starting concentration of 5×10^4 cells/T25 flask. On day 3, cells are exposed to different concentrations of the drug. Flasks are incubated for 120 h (5 d) in a 5% CO2 incubator at 37° C. and the cells harvested with trypsin, washed once with Hanks Balanced Salt Solution (HBSS) and re-suspended in HBSS containing 0.08% Trypan Blue. Both viable and dead cells are counted using a hemocytometer. Viable cell numbers are normalized to an untreated control and plotted as a function of drug concentration. The IC50 value is determined using Prism 4.0.

[2] = NORAC (Brunswick Test # A105); assay type: biochemical
Experimental: Peroxyl radical scores are measured in the ORAC test (Oxygen Radical Absorption Capacity). Hydroxyl Radicals are tested in the HORAC test (Hydroxyl Radical Absorption Capacity). Peroxynitrite Radicals are tested in the NORAC test (Peroxynitrite Radical Absorption Capacity). Superoxide Radicals are measured in the SOD test (Superoxide Radical Absorption Capacity). Applicant's compounds and compositions were tested by the NORAC test (Brunswick test # A 105), which measures the activity of a given antioxidant against peroxynitrite radicals. NORAC tests were based on the method of Chung H. et al (2001) Journal Agricultural of Food Chemistry, 49: 3614-3621. Scores are expressed in micromoles of trolox equivalent per liter (TE/L) for liquid formulations and Trolox equivalent per gram (TE/g) for dry powders.

[3] = test system: HCT-116 human colon cancer cells; assay: IC50 assay (concentration-cell number study); assay type: cell-based; settings: for IC50: Homo sapiens
Experimental: Concentration-cell number studies (IC50 assay) were carried out utilizing 12 separate compositions (numbered 1-12 below) against 13 different cancer cell lines (see Table 6). […] On day 3, cells are exposed to different concentrations of the drug. Flasks are incubated for 120 h (5 d) in a 5% CO2 incubator at 37° C. and the cells harvested with trypsin, washed once with Hanks Balanced Salt Solution (HBSS) and re-suspended in HBSS containing 0.08% Trypan Blue. Both viable and dead cells are counted using a hemocytometer. Viable cell numbers are normalized to an untreated control and plotted as a function of drug concentration. The IC50 value is determined using Prism 4.0.

Colon 38 Colon Cancer = assay: IC50 assay (concentration-cell number study); assay type: cell-based
Experimental: (§3) These cells are grown in 5 ml culture medium (RPMI-1640+15% Bovine Calf serum containing 1% penicillin-streptomycin, and 1% Glutamine) at 37° C. and 5% CO2 at a starting concentration of 5×10^4 cells/T25 flask. On day 3, cells are exposed to different concentrations of the drug. Flasks are incubated for 120 h (5 d) in a 5% CO2 incubator at 37° C. and the cells harvested with trypsin, washed once with Hanks Balanced Salt Solution (HBSS) and re-suspended in HBSS containing 0.08% Trypan Blue. Both viable and dead cells are counted using a hemocytometer. Viable cell numbers are normalized to an untreated control and plotted as a function of drug concentration. The IC50 value is determined using Prism 4.0.
(§4) Cell Lines utilized in IC50 Assays: HCT-116 human colon cancer cells, H125 Lung Cancer, MCF-7, Breast Cancer, MDA-235 Breast Cancer, LNCaP Prostate Cancer, OVAR-5 Ovarian Cancer, U251N Brain Cancer Sarcoma 180, Panc 01Pancreatic Cancer, CCRF-CEM Leukemia, HEP-G2 Liver Cancer, L1210 Leukemia, Colon 38 Colon Cancer.

LNCaP Prostate Cancer = assay: IC50 assay (concentration-cell number study); assay type: cell-based
Experimental: as §2

[4] = ORAC lipo (Brunswick Test # A102); assay type: biochemical
Experimental: (§1) Peroxyl radical scores are measured in the ORAC test (Oxygen Radical Absorption Capacity). Hydroxyl Radicals are tested in the HORAC test (Hydroxyl Radical Absorption Capacity). Peroxynitrite Radicals are tested in the NORAC test (Peroxynitrite Radical Absorption Capacity). Superoxide Radicals are measured in the SOD test (Superoxide Radical Absorption Capacity). The ORAC test measures the antioxidant activity against peroxyl radicals by determining how many peroxyl free radicals can be absorbed by a given antioxidant as compared to the vitamin E analog-Trolox. The result is expressed as micromoles of Trolox equivalent per liter (TE/L) for liquid formulations and Trolox equivalent per gram (TE/g) for dry powders. Brunswick tested the Applicant's compounds for antioxidant activity against both hydrophilic and lipophilic peroxyl radicals as expressed in the ORAC total (see table 7).

MDA-235 Breast Cancer = assay: IC50 assay (concentration-cell number study); assay type: cell-based
Experimental: as §2

[5] = ORAC total (Brunswick Test # A103); assay type: biochemical
Experimental: as §1

L1210 Leukemia = assay: IC50 assay (concentration-cell number study); assay type: cell-based
Experimental: as §2

[6] = ORAC hydro (Brunswick Test # A101); assay type: biochemical
Experimental: as §1

CCRF-CEM Leukemia = assay: IC50 assay (concentration-cell number study); assay type: cell-based
Experimental: as §2

[7] = test system: 13 different cancer cell lines; assay: IC50 assays, average or range over all cell lines; assay type: cell-based
Experimental: as §3, §4

[8] = SORAC (Brunswick Test # A106); assay type: biochemical
Experimental: Peroxyl radical scores are measured in the ORAC test (Oxygen Radical Absorption Capacity). Hydroxyl Radicals are tested in the HORAC test (Hydroxyl Radical Absorption Capacity). Peroxynitrite Radicals are tested in the NORAC test (Peroxynitrite Radical Absorption Capacity). Superoxide Radicals are measured in the SOD test (Superoxide Radical Absorption Capacity). Applicant's compounds and compositions were tested by the SORAC test (Brunswick test #106), which measures the activity of a given antioxidant against Superoxide radicals. The tests were conducted based on the method of Zhao et al (1999) Journal of Agricultural and Food Chemistry, (1999), 47: 2537-2543. The calibration standard was SOD and was expressed as a unit SOD equivalent per liter (unitsSODeq/L) for liquid formulations and unit SOD equivalent per gram (unitsSODeq/g) for dry powders.

[9] = test system: HCT-116 human colon cancer cells; assay: Clonogenic dose response; assay type: cell-based
Experimental: Clonogenic survival of the cells was measured by a standard tissue culture procedure.
Asimicin was prepared in ethanol. Clonogenic survival of the cells was measured by a standard tissue culture procedure.

HEP-G2 Liver Cancer = assay: IC50 assay (concentration-cell number study); assay type: cell-based
Experimental: as §2

[10] = in vivo; cited from earlier work
Sarcoma 180 = assay: IC50 assay (concentration-cell number study); assay type: cell-based
Experimental: as §2

U251N Brain Cancer = assay: IC50 assay (concentration-cell number study); assay type: cell-based
Experimental: as §2

H125 Lung Cancer = assay: IC50 assay (concentration-cell number study); assay type: cell-based
Experimental: as §3, §4

OVAR-5 Ovarian Cancer = assay: IC50 assay (concentration-cell number study); assay type: cell-based
Experimental: as §2

[11] = test system: Panc 01 Pancreatic Cancer; assay: IC50 assay (concentration-cell number study); assay type: cell-based
Experimental: as §2

[12] = Cantron oral liquid scores converted from TE/L to TE/g
[13] = Homo sapiens, 120 h exposure, read-out: IC50
[14] = Mus musculus, 120 h exposure, read-out: IC50

Structure (SMILES): Oc1ccccc1O [Composition 2, Catechol]
- HORAC SCORE ([1]; Cantron oral liquid scores converted from CAE/L to CAE/g): 5,572 micromoles CAE/g
- more effective than Cantron NM ([1]; Hydroxyl score ratio): 2,079% more effective than
- IC50 times lower than Cantron (times more efficacious than Cantron) (MCF-7 Breast Cancer): 11.36 times lower than
- IC50 (MCF-7 Breast Cancer; 120 h exposure): to 2.2 μg/ml). It is
- IC50 (MCF-7 Breast Cancer; Homo sapiens, MCF7, 120 h exposure, read-out: IC50): 2.2 µg/mL (≈ 20 µM)
- NORAC SCORE [2, 12]: 2,593 micromoles TE/g
- more effective than the improved Cantron ASV ([2]; Peroxynitrite score ratio): is still 409.63% more effective
- IC50 times lower than Cantron (times more efficacious than Cantron) ([3]; HCT-116): 7.04 times lower than
- calculated cytotoxicity value of catechol ([3]; HCT-116, Cantron score 19.7 multiplied by 12.7% catechol by weight): 2.5019 µg/mL
- IC50 ([3]; HCT-116, 120 h, HCT-116, 120 h exposure, read-out: IC50): 2.8 µg/mL (≈ 25.4 µM)
- IC50 ([3]; HCT-116, read-out: calculated cytotoxicity value of catechol, HCT-116, Cantron score 19.7 multiplied by 12.7% catechol by weight): 2.5 µg/mL (≈ 22.7 µM)
- IC50 times lower than Cantron (times more efficacious than Cantron) (Colon 38 Colon Cancer): 11.36 times lower than
- IC50 (Colon 38 Colon Cancer; 120 h exposure, read-out: IC50): 2.2 µg/mL (≈ 20 µM)
- IC50 times lower than Cantron (times more efficacious than Cantron) (LNCaP Prostate Cancer): 18.82 times lower than
- IC50 (LNCaP Prostate Cancer; [13]): 1.7 µg/mL (≈ 15.4 µM)
- ORAC lipo SCORE [4, 12]: 24,682 micromoles TE/g
- more effective than the improved Cantron ASV ([4]; Peroxyl-lipo score ratio): is still 4086.4% more effective
- IC50 times lower than Cantron (times more efficacious than Cantron) (MDA-235 Breast Cancer): 9.33 times lower than
- IC50 (MDA-235 Breast Cancer; 120 h exposure, read-out: IC50): 3 µg/mL (≈ 27.2 µM)
- TOTAL ORAC SCORE [5, 12]: 73,161 micromoles TE/g
- more effective than Cantron NM ([5]; Peroxyl-total score ratio): The Catechol composition is 1702%
- IC50 times lower than Cantron (times more efficacious than Cantron) (L1210 Leukemia): 10.52 times lower than
- IC50 (L1210 Leukemia; [14]): 1.9 µg/mL (≈ 17.3 µM)
- ORAC hydro SCORE [6, 12]: 48,479 micromoles TE/g
- more effective than the improved Cantron ASV ([6]; Peroxyl-hydro score ratio): is still 507% more effective than
- IC50 times lower than Cantron (times more efficacious than Cantron) (CCRF-CEM Leukemia): 6.19 times lower than
- IC50 (CCRF-CEM Leukemia; [13]): 2.1 µg/mL (≈ 19.1 µM)
- IC50 ([7]; average of 13 cell lines): 2.3 µg/mL (≈ 20.9 µM)
- times more efficacious than Cantron ([7]; average over the cell lines tested): 10.35 times
- SOD SCORE ([8]; Cantron oral liquid scores converted from unitsSODeq/L to unitsSODeq/g): 159,000 unitsSODeq/g
- more effective than the improved Cantron ASV ([8]; Superoxide score ratio): is still 441.66% more effective
- clonogenic survival ([9]; 24 h exposure, 10 micrograms/ml): 0.1
- effect on clonogenic survival ([9]; 24 h exposure, concentrations up to 1 microgram/ml): no effect
- effect on the survival of the tumor cells ([9]; concentration of up to 10 micrograms/ml, exposure time not given): no effect
- concentration with cell survival at the 0.1 level ([9]; extended exposure 168 h): 200 picograms/ml
- IC50 times lower than Cantron (times more efficacious than Cantron) (HEP-G2 Liver Cancer): 4.61 times lower than
- IC50 (HEP-G2 Liver Cancer; Homo sapiens, HepG2, 120 h exposure, read-out: IC50): 2.6 µg/mL (≈ 23.6 µM)
- known side effects in animal tests [10]: stomach irritation and hyperplasia
- IC50 times lower than Cantron (times more efficacious than Cantron) (Sarcoma 180): 12.11 times lower than
- IC50 (Sarcoma 180; [14]): 1.9 µg/mL (≈ 17.3 µM)
- IC50 times lower than Cantron (times more efficacious than Cantron) (U251N Brain Cancer): 10.45 times lower than
- IC50 (U251N Brain Cancer; 120 h exposure, read-out: IC50): 2.2 µg/mL (≈ 20 µM)
- IC50 times lower than Cantron (times more efficacious than Cantron) (H125 Lung Cancer): 14.29 times lower than
- IC50 (H125 Lung Cancer; Homo sapiens, NCI-H125, 120 h exposure, read-out: IC50): 2.1 µg/mL (≈ 19.1 µM)
- IC50 times lower than Cantron (times more efficacious than Cantron) (OVAR-5 Ovarian Cancer): 3.69 times lower than
- IC50 (OVAR-5 Ovarian Cancer; 120 h exposure, read-out: IC50): 3.2 µg/mL (≈ 29.1 µM)
- IC50 times lower than Cantron (times more efficacious than Cantron) [11]: 14.71 times lower than
- IC50 ([11]; 120 h exposure, read-out: IC50): 1.7 µg/mL (≈ 15.4 µM)
